Earlier results as cited in article PMC6277767, “Broad and Region-Specific Impacts of the Synthetic Cannabinoid CP 55,940 in Adolescent and Adult Female Mouse Brains” (Frontiers in Molecular Neuroscience, 2018).
pEC50, pIC50: −log10 of the molar value.

Tests used:
[1] = test system: BV-2 microglial cells; design: method as in Rimmerman et al., 2012; details: ref Rimmerman et al., 2012; cited from earlier work
[2] = test system: human peripheral blood mononuclear cells; design: method as in Bileck et al., 2016; details: 10 μM for 3 h; ref Bileck et al., 2016; cited from earlier work
[3] = test system: DAGLα; design: method as in Ogasawara et al., 2016; details: reductions measured at 2 h and 4 h post-injection; ref Ogasawara et al., 2016; cited from earlier work
[4] = test system: CB1; design: method as in Felder et al., 1995; details: ref Felder et al., 1995; read-out: IC50, inhibition of adenylate cyclase at CB1; cited from earlier work
[5] = test system: CB1; details: ref Brents et al., 2011; read-out: EC50, stimulated G-protein binding at CB1; cited from earlier work
[6] = test system: CB2; design: method as in Felder et al., 1995; details: ref Felder et al., 1995; read-out: IC50, inhibition of adenylate cyclase at CB2; cited from earlier work
[7] = design: method as in Leishman et al., 2018; details: acute exposure, all age groups; ref Leishman et al., 2018; cited from earlier work

SMILES: C=C(C)[C@@H]1CCC(C)=C[C@H]1c1c(O)cc(CCCCC)cc1O [CBD, cannabidiol]
- levels of AEA [1]: increased

SMILES: CCCCCCCC(C)(C)c1ccc([C@H]2CCC[C@@H](O)C2)c(O)c1 [CP 47,497-C8]
- expression of 5-LOX compared to vehicle [2]: 26 fold
- expression of fatty acid synthase [2]: over twofold

SMILES: C#CCO[C@@H]1CC[C@H](Cc2ccccc2)N(C(=O)n2ncc(C(O)(c3ccc(F)cc3)c3ccc(F)cc3)n2)C1 [DH376]
- time for reduced 2-AG, AA and AEA levels to return to baseline [3]: ≤ 8 h

SMILES: CCCCCc1cc(O)c2c(c1)OC(C)(C)[C@@H]1CCC(C)=C[C@@H]21 [THC, Δ^9-tetrahydrocannabinol]
- pIC50 [6]: 7.38
- brain area with highest THC levels [7]: HIPP
